Test results as given in publication PMC5237291, “Sigma-2 receptor agonist derivatives of 1-Cyclohexyl-4-[3-(5-methoxy-1,2,3,4-tetrahydronaphthalen-1-yl)propyl]piperazine (PB28) induce cell death via mitochondrial superoxide production and caspase activation in pancreatic cancer” (BMC Cancer, 2017).
Read-outs that look alike come from different tables or passages of the source.

Experiments:
caspase-3 = assay: Caspase-Glo caspase-3 activity in Panc02 cells; format: cell-based, mouse; settings: for Caspase-3 activation (in words): compared to DMSO control
Experimental: Caspase-3 activity was measured in Panc02 cell lines with a Caspase-Glo® Assay Systems (Promega) according to protocol in which the reagent contain luminogenic caspase substrates that cleaved by activated caspase. […] The contents were then mixed using plate shaker for 30 s, and incubated at room temperature for 90 min. Luminescence signal was measured using multi-mode microplate reader (BioTek). Assay was performed in triplicates, and caspase activity was plotted compared cells treated with DMSO as a control.

Panc02 cells [1] = assay: ROS interference in cell viability (MTT with antioxidants); format: cell-based, mouse; settings: 24 h; for Protection against sigma-2 ligand induced cell death (Panc02 viability): antioxidant 100 μM one hour prior to sigma-2 ligands 50 μM
Experimental: The interference of ROS in cell viability was indirectly determined by MTT assay reported above at 24 h. On day 1, Panc02 cells were plated at a density of 2 × 10^4 cells/well in opaque 96-well, clear-bottom plates 24 h prior to treatment. On day 2, cells were treated with the drugs (50 μM) in the presence or absence of α-tocopherol (100 μM) or N-Acetyl-L-cysteine (100 μM). After incubation (24 h) with drugs, MTT assay was performed as above.

Panc02 cells [2] = assay: MitoSOX Red mitochondrial superoxide by flow cytometry, Panc02; format: cell-based, mouse; settings: all pancreatic cancer cell lines tested (Panc02, AsPC-1, KP02, BxPC3); sigma-2 ligands 50 μM, 2 h, with α-tocopherol
Experimental: MitoSOX™ Red reagent is a novel fluorogenic dye specifically targeted to mitochondria in live cells. Oxidation of MitoSOX™ Red reagent by superoxide produces red fluorescence. Mitochondrial superoxide is generated as a byproduct of oxidative phosphorylation. […] MitoSOX™ Red reagent is readily oxidized by superoxide but not by other ROS- or reactive nitrogen species (RNS)–generating systems. Panc02, AsPC-1, KP-2 or BxPC3 cells were seeded into 12-well plates 24 h before treatment with sigma-2 ligands (50 μM) for 2 h at 37°C in presence or absence of α-tocopherol (100 μM) followed by staining with MitoSOX™ Red (5 μM). Two hours after red dye addition, the cells were washed twice with PBS and harvested with trypsin/EDTA buffer. The cells were washed twice with PBS before analysis with FACSCalibur (BD Bioscience, San Jose, CA). The oxidation product of MitoSOX™ Red by mitochondrial superoxide fluoresces with an emission maximus of 580 nm and was detected in the FL3 channel. Experiment was performed in triplicates.

Panc02 tumors = assay: In vivo tumor growth and survival, Panc02 tumors in C57BL/6 mice; settings: for Mean tumor volume following conclusion of treatment / Effect on tumor volume (in words): Panc02 s.c. in female C57BL/6; for Mean tumor volume following conclusion of treatment: i.p. daily for two weeks (gemcitabine once weekly), vehicle mean = 924 mm^3; for Effect on tumor volume (in words): daily i.p. treatment, compared to vehicle or gemcitabine
Experimental: In this pre-clinical model, we utilized the Panc02 cell line, which is weakly immunogenic in C57BL/6 mice and aggressive with a subcutaneous inoculum of 1 × 10^5 cells being lethal within 6–8 weeks. In vivo studies with mice were performed to compare the effect of sigma-2 ligands with gemcitabine. Mice treated with vehicle alone (a mixture of 5% DMSO, 5% EtOH, and 10% Cremophor in H2O) served as the control cohort. Female C57BL/6 mice (10 weeks old, National Cancer Institute Laboratories) were injected in the right flank with 200 μL of a single-cell suspension of Panc02 cells in non-supplemented RPMI medium (1 × 10^6 cells per mouse). Treatment began when the mean tumor diameter was ~ 5 mm. […] Tumors were measured three times weekly in two dimensions with a digital caliper, and tumor volumes were calculated by the standard formula of Tumor Volume = Length x Width^2 × 0.5. All mice were euthanized when tumors reached a diameter of 15 mm or had ulcerated.

Panc02 cells [3] = assay: MTT cell viability, Panc02; format: cell-based; settings: Mus musculus, 24 h treatment, viability relative to vehicle
Experimental: (§1) Determination of cell growth was performed using the MTT assay at 24 h. On day 1, pancreatic cancer cell lines were plated at a density of 2 × 10^4 cells/well in black clear-bottom 96-well plates for 24 h prior to treatment in a volume of 100 μL. On day 2, the cells were treated for 24 h with the various drugs concentration (1 μM-100 μM). Untreated cells served as a control. The various drug-solvents (EtOH, DMSO) were added in each control to evaluate a possible solvent cytotoxicity. After the established incubation time with drugs (24 h), MTT (0.5 mg/ml) was added to each well, and after 3–4 h incubation at 37 °C, the supernatant was removed. The formazan crystals were solubilized using 100 μl of DMSO/EtOH (1:1) and the absorbance values at 570 and 630 nm were determined on the multi-mode microplate reader (BioTek instruments, Winooski, VT). Different drug concentrations were assayed in triplicates.
(§2) Statistical analyses and data plotting were performed using GraphPad Prism software version 6.03 (San Diego, CA). Results were expressed as mean ± standard error of the mean of at least 3 biological replicates. EC50 values were calculated by curve fitting normalized viability versus drug concentration. Differences in viability, caspase-3 activity, and tumor volume were analyzed using two-way ANOVA to identify differences and confirmed with paired two tailed t-tests. Mann-Whitney test was used to compare the difference in CBC and biochemistry analyses. Kaplan-Meier survival analyses were used to assess differences between treatment groups and were compared using a log-rank test. A p-value < 0.05 was considered significant for all analyses.

KP02 cells = assay: MTT cell viability, KP02; format: cell-based, mouse; settings: Mus musculus, 24 h, 24 h treatment, viability relative to vehicle
Experimental: as §1, §2

KCKO cells = assay: MTT cell viability, KCKO; format: cell-based; settings: Mus musculus, 24 h treatment, viability relative to vehicle
Experimental: as §1, §2

MIAPaCa-2 cells = assay: MTT cell viability, MIAPaCa-2; format: cell-based; settings: Homo sapiens, MIA PaCa-2, 24 h treatment, viability relative to vehicle
Experimental: as §1, §2

BxPC3 cells = assay: MTT cell viability, BxPC3; format: cell-based, human; settings: Homo sapiens, BXPC-3, 24 h, 24 h treatment, viability relative to vehicle
Experimental: as §1, §2

AsPC-1 cells = assay: MTT cell viability, AsPC-1; format: cell-based; settings: Homo sapiens, ASPC1, 24 h treatment, viability relative to vehicle
Experimental: as §1, §2

Panc-1 cells = assay: MTT cell viability, Panc-1; format: cell-based; settings: Homo sapiens, 24 h treatment, viability relative to vehicle
Experimental: as §1, §2

[4] = Toxicity evaluation on mice not bearing tumor (CBC, serum chemistry, pathology); format: in vivo, C57BL/6 mice; settings: for Off-target effects by necropsy and laboratory evaluations: naïve C57BL/6 mice, continuous daily treatment; for Creatinine: control 0.34 ± 0.02; for RBC: control 7.14 ± 0.1; for WBC: control 10.58 ± 0.2; for HGB: control 10.7 ± 0.7; for MCH: control 15 ± 0.54; for BUN: control 27 ± 0.4; for MCHC: control 29.2 ± 1.21; for HCT: control 36.6 ± 0.08; for MCV: control 51.2 ± 0.32; for Glucose: control 62 ± 12.5; for ALT: control 260 ± 21; for Platelets: control 486 ± 67
Experimental: […] Mice from each treatment cohort were assessed for pathologic evaluation (Digestive Diseases Research Core Center at our institution). Blood was collected for complete blood count (CBC) and biochemical analysis (AST, ALT, BUN, total protein, glucose and Cr). Organs were examined grossly and histologically.

sigma-2 receptor = settings: ref Berardi, read-out: Affinity (Ki) σ2, cited from earlier work
[5] = not tumor-bearing C57BL/6 mice, n = 3, daily i.p., 5 days

| EC50 (Panc02 cells [3]) | EC50 (MIAPaCa-2 cells) | EC50 (BxPC3 cells) | EC50 (AsPC-1 cells) | EC50 (Panc-1 cells) | SMILES | EC50 (KP02 cells) | EC50 (KCKO cells) | Effect on tumor volume (in words) (Panc02 tumors) | Off-target effects by necropsy and laboratory evaluations [4] | Creatinine [4, 5] | RBC [4, 5] | WBC [4, 5] | HGB [4, 5] | MCH [4, 5] | BUN [4, 5] | MCHC [4, 5] | HCT [4, 5] | MCV [4, 5] | ALT [4, 5] | Platelets [4, 5] | further results |
| --- | --- | --- | --- | --- | --- | --- | --- | --- | --- | --- | --- | --- | --- | --- | --- | --- | --- | --- | --- | --- | --- |
| – | – | – | – | – | Cc1c(C)c2c(c(C)c1O)CC[C@@](C)(CCC[C@H](C)CCC[C@H](C)CCCC(C)C)O2 [α-tocopherol, reference compound] | – | – | – | – | – | – | – | – | – | – | – | – | – | – | – | Effect on caspase activation caused by PB221 or PB282 (caspase-3; Z-DEVD-FMK 1 μM or α-tocopherol given before PB221, PB282 (200 μM, 5 h)): abrogates caspase-3 dependent cleavage; Protection against sigma-2 ligand induced cell death (Panc02 viability) (Panc02 cells [1]): protected against sigma-2 receptor ligands induced cell death; Effect on mitochondrial superoxide production following sigma-2 ligands treatment (Panc02 cells [2]): strongly decreased |
| – | – | – | – | – | Nc1ccn([C@@H]2O[C@H](CO)[C@@H](O)C2(F)F)c(=O)n1 [gemcitabine, Gemcitabine, reference compound] | – | – | – | – | – | – | – | – | – | – | – | – | – | – | – | Mean tumor volume following conclusion of treatment (Panc02 tumors): 395 mm^3 |
| 83 µM | 49 µM | 100 µM | > 100 µM | > 100 µM | COc1cccc2c(CCCN3CCN(C4CCCCC4)CC3)cccc12 [PB183, 1-Cyclohexyl-4-[3-(5-methoxynaphthalen-1-yl)propyl]-piperazine] | 97 µM | 51 µM | not effective | no major off-target effects | 0.37 ± 0.04 mg/dL | 9.24 ± 0.9 10^6/μL | 6.42 ± 1.22 10^3/μL | 14.85 ± 1.35 g/dL | 16.1 ± 0.1 pg | 21 ± 2 mg/dL | 30.4 ± 0.7% | 48.8 ± 3.3% | 52.9 ± 1.6 fL | 203 ± 34 μ/L | 727.5 ± 65.5 10^3/μL | Caspase-3 activation (in words) (caspase-3; 200 μM, 5 h): little effect; Cell death on co-treatment with NAC (Panc02 cells [1]; Panc02 cells, ligand 50 μM with NAC 100 μM): even higher levels of cell death; AST ([4]; not tumor-bearing C57BL/6 mice, n = 3, daily i.p., 5 days, control 5.6 ± 0.05): 5.4 ± 0.5 μ/L; Ki (sigma-2 receptor; et al. 2004 [25]): 0.00924 µM |
| – | – | – | – | – | CC(=O)N[C@@H](CS)C(=O)O [N-acetyl-L-cysteine (NAC), N-Acetyl-L-cysteine, reference compound] | – | – | – | – | – | – | – | – | – | – | – | – | – | – | – | Protection against sigma-2 ligand induced cell death (Panc02 viability) (Panc02 cells [1]): did not |
| 37 µM | 50 µM | 100 µM | > 100 µM | > 100 µM | COc1cccc2c1CCCC2CCCN1CCC(C2CCCCC2)CC1 (centres unmarked) [PB221, 4-Cyclohexyl-1-[3-(5-methoxy-1,2,3,4-tetrahydronaphthalen-1-yl-propyl)]piperidine] | > 100 µM | 19 µM | did not confer a significantly different tumor volume than vehicle alone | no major off-target effects | 0.35 ± 0.03 mg/dL | 9.59 ± 0.71 10^6/μL | 8.12 ± 0.14 10^3/μL | 14.7 ± 0.8 g/dL | 15.35 ± 0.35 pg | 30.5 ± 3.5 mg/dL | 29.25 ± 0.55% | 50.35 ± 3.75% | 52.5 ± 0.02 fL | 219 ± 5 μ/L | 563 ± 17 10^3/μL | Increase of caspase-3 activity compared to cells treated with DMSO vehicle (caspase-3; 200 μM, 5 h): 15.7 fold; Glucose [4, 5]: 64.5 ± 7.5 mg/dL; Ki (sigma-2 receptor; et al. 2009 [26]): 0.0188 µM |

| SMILES | EC50 (Panc02 cells [3]) | EC50 (MIAPaCa-2 cells) | EC50 (BxPC3 cells) | EC50 (AsPC-1 cells) | EC50 (Panc-1 cells) | EC50 (KP02 cells) | EC50 (KCKO cells) | Effect on tumor volume (in words) (Panc02 tumors) | Off-target effects by necropsy and laboratory evaluations [4] | Creatinine [4, 5] | RBC [4, 5] | WBC [4, 5] | HGB [4, 5] | MCH [4, 5] | BUN [4, 5] | MCHC [4, 5] | HCT [4, 5] | MCV [4, 5] | ALT [4, 5] | Platelets [4, 5] | further results |
| --- | --- | --- | --- | --- | --- | --- | --- | --- | --- | --- | --- | --- | --- | --- | --- | --- | --- | --- | --- | --- | --- |
| COc1cccc2c1CCCC2CCCN1CCN(C2CCCCC2)CC1 (centres unmarked) [PB28, 1-Cyclohexyl-4-[3-(5-methoxy-1,2,3,4-tetrahydronaphthalen-1-yl)propyl] piperazine] | 43 µM | 51 µM | > 100 µM | > 100 µM | > 100 µM | > 100 µM | 87 µM | decreased tumor volume similar to gemcitabine alone | no major off-target effects | 0.37 ± 0.04 mg/dL | 10.24 ± 0.3 10^6/μL | 11.11 ± 1.97 10^3/μL | 15.65 ± 0.55 g/dL | 15.3 ± 0.1 pg | 32 ± 1 mg/dL | 29.3 ± 0.2% | 53.4 ± 1.5% | 52.15 ± 0.05 fL | 249 ± 9 μ/L | 643.5 ± 95.5 10^3/μL | Caspase-3 activation (in words) (caspase-3; 200 μM, 5 h): did not activate at all; Mean tumor volume following conclusion of treatment (Panc02 tumors): 369 mm^3; Median survival (Panc02 tumors; Panc02 tumor-bearing C57BL/6 mice, treatment discontinued on day 15, DMSO (vehicle) 23 days): 27 days; Glucose [4, 5]: 92.5 ± 22.5 mg/dL; Ki (sigma-2 receptor; et al. 2009 [26]): 0.00068 µM |
